Where “and” joins values, the source holds several entries; their conditions need not be identical. Equal entries are not always repeated. Where two headings read alike, the source gives them in different places.
Legend:
OATP1B1 [1] = biological target: T1, OATP1B1 (Homo sapiens, UniProt Q9Y6L6); assay: Preincubation-induced trans-inhibition of OATP1B1-mediated [3H]-E217βG transport in HEK293-FLAG-OATP1B1 cells; type: cell-based; parameters: expressed in transfected cells; settings: for IC50: washing, [3H]-E217βG 1 µM 2 min without inhibitor, HEK293-FLAG-OATP1B1, read-out: Preincubation IC50 against OATP1B1
T1 sequence (Q9Y6L6 1-691): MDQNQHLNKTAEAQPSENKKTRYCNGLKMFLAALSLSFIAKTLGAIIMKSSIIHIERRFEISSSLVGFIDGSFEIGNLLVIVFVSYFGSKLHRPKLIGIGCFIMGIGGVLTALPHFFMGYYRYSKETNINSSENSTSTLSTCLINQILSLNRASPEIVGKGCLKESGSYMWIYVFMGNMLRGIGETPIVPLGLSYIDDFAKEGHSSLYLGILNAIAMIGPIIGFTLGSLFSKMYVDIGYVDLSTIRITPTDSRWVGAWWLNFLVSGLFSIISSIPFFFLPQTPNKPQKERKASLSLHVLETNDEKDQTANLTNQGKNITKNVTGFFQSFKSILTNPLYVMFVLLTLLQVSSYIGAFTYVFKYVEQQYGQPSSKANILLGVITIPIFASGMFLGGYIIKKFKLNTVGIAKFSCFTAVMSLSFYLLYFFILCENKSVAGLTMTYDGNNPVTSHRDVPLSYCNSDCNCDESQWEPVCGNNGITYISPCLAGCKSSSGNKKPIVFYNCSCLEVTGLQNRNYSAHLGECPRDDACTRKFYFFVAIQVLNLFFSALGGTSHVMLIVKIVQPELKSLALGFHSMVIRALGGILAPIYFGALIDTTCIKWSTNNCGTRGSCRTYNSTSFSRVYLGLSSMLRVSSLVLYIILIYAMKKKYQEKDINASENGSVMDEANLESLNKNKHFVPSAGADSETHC
Source text: The IC50 values were estimated by nonlinear regression using the three-parameter model as below with GraphPad Prism v.9.0 (GraphPad Software, La Jolla, CA, USA). E = Bottom + (Top − Bottom)/(1 + (C/IC50))

OATP1B3 [2] = biological target: T2, OATP1B3 (Homo sapiens, UniProt Q9NPD5); parameters: method as in PMID 22240838; settings: cited from earlier work
T2 construct: expressed in transfected cells
T2 sequence (Q9NPD5 1-702): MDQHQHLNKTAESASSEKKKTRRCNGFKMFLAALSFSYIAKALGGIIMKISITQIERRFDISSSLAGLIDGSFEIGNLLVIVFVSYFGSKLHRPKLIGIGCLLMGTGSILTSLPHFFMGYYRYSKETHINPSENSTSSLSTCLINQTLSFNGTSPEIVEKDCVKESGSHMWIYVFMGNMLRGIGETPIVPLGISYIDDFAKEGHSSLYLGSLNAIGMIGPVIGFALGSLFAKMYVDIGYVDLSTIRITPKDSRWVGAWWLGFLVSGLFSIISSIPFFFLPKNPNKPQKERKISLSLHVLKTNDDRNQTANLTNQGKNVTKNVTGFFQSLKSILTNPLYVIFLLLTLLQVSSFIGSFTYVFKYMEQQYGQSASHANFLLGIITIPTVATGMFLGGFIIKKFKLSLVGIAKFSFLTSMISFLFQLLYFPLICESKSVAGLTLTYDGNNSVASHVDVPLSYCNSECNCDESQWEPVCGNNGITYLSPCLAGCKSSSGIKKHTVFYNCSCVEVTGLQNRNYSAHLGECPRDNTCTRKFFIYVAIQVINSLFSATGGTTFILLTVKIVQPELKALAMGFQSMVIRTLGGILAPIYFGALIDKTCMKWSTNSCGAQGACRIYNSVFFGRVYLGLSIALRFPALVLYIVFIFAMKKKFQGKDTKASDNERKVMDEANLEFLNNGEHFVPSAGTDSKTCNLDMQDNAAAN

OATP1B1 [3] = biological target: T1, OATP1B1; assay: Preincubation-induced trans-inhibition of OATP1B1-mediated [3H]-E1S transport in HEK293-FLAG-OATP1B1 cells; type: cell-based; parameters: expressed in transfected cells; settings: E1S 1 µM, 2 min
Procedure: (§1) HEK293-FLAG-OATP1B1 and HEK293-FLAG-OATP1B3 cells were seeded at a density of 1.5 × 10^5 cells per well of 24-well plate coated with poly-L-lysine and allowed to grow for 48 h to confluence before uptake studies were performed as published previously; the preincubation effects on OATP1B1- and OATP1B3-mediated transport were also determined as previously published. […] After washing three times with HBSS buffer (pH 7.4), substrate accumulation was determined in the absence of inhibitors. [^3H]-E217βG (1 µM, 2 min) and [^3H]-E1S (1 µM, 2 min) were used as probe substrates for OATP1B1; [^3H]-CCK-8 (1 µM, 3 min) was used as the probe substrate for OATP1B3, similar to previous publications. [^3H]-pitavastatin accumulation (1 µM, 30 s) in human SCH was conducted on day 2 of culture as has been published previously. Substrate accumulation was determined by scintillation counting (LS6500 scintillation counter, Beckman Coulter, Brea, CA) and normalized to a protein concentration determined via BCA assay (Pierce Chemical, Rockford, IL, USA). Transport assays on a blank plate without cells were conducted to correct for the nonspecific binding to the assay plate.

human SCH = assay: [3H]-pitavastatin accumulation in human sandwich-cultured hepatocytes after inhibitor preincubation and washing; type: cell-based; settings: 10 µM
Procedure: Fresh primary human hepatocytes were purchased from Lonza Walkersville, Inc. (Walkersville, MD, USA). Donor information is provided in Supplementary Table S1. Cell viability was 96% after centrifugation. Culture of human SCH was performed as described previously. In brief, on day 1, cells were plated at 3 × 10^5 cells per well in 24-well Biocoat™ plates (Thermo Fisher Scientific, Waltham, MA, USA). When cells had attached to the plate after 6 h of seeding, cells were overlaid with Matrigel™ (Thermo Fisher Scientific, Waltham, MA, USA) (0.25 mg/mL) in feeding medium: phenol red-free DMEM supplemented with 2 mM L-glutamine, 1% (v/v) MEM NEAA, 100 units/mL of penicillin G sodium, 100 µg/mL of streptomycin sulfate, 0.1 μM dexamethasone, and 1% (v/v) ITS^+ premix. Uptake experiments were conducted on day two of culture, the next day after seeding.

OATP1B1 [4] = biological target: T1, OATP1B1; settings: E1S as substrate; cited from earlier work
OATP1B3 [5] = biological target: T2, OATP1B3; assay: Preincubation-induced trans-inhibition of OATP1B3-mediated [3H]-CCK-8 transport in HEK293-FLAG-OATP1B3 cells; type: cell-based; settings: preincubation 10–60 min with tacrolimus 1–10 µM; greatest reduction
Procedure: as §1

[6] = cited from earlier work

For `C/C=C/C[C@@H](C)[C@@H](O)[C@H]1C(=O)N[C@@H](CC)C(=O)N(C)[C@H](SCCN(C)C)C(=O)N(C)[C@@H](CC(C)(C)O)C(=O)N[C@@H](C(C)C)C(=O)N(C)[C@@H](CC(C)C)C(=O)N[C@@H](C)C(=O)N[C@H](C)C(=O)N(C)[C@@H](CC(C)C)C(=O)N(C)[C@@H](CC(C)C)C(=O)N(C)[C@@H](C(C)C)C(=O)N1C` [SCY-635], the IC50 (OATP1B1 [1]; 10 min preincubation (0.001–10 µM)) was ~9.4 µM and 9.4 µM, the IC50 (OATP1B1 [1]; 30 min preincubation (0.001–10 µM)) was ~3.1 µM and 3.1 µM and the IC50 (OATP1B1 [1]; 60 min preincubation (0.001–10 µM)) was 2.2 ± 1.4 µM. For the same compound, the “IC50 against OATP1B1, fold greater than that of CsA” value (OATP1B1 [1]; 60 min preincubation, SCY-635 IC50 versus CsA IC50) was ~ 18 fold, the “Preincubation IC50 at 30 min, fold higher than IC50 at 60 min preincubation” value (OATP1B1 [1]; OATP1B1, 30 min versus 60 min preincubation) was 1.4 fold and the “Effect of preincubation on OATP1B1-mediated transport” value (OATP1B1 [1]; SCY-635, all preincubation times, only at 5 and 10 µM, p < 0.00001) was “significantly reduced”.

For `C=CC[C@@H]1/C=C(\C)C[C@H](C)C[C@H](OC)[C@H]2O[C@@](O)(C(=O)C(=O)N3CCCC[C@H]3C(=O)O[C@H](/C(C)=C/[C@@H]3CC[C@@H](O)[C@H](OC)C3)[C@H](C)[C@@H](O)CC1=O)[C@H](C)C[C@@H]2OC` [tacrolimus], the “OATP1B1-mediated transport, reduced up to, fold compared to the control” value (OATP1B1 [1]; preincubation 10–60 min with tacrolimus 1–10 µM, greatest reduction) is listed as 0.18 ± 0.03 fold compared to the control, the “Preincubation-induced trans-inhibition against OATP1B3” value (OATP1B3 [2]) is listed as “no preincubation-induced trans-inhibition” and the “OATP1B1-mediated transport of [3H]-E1S, fold that of the control” value (OATP1B1 [3]; 1 µM preincubation, 10 min) is listed as 0.85 ± 0.02 fold that of the control. For the same compound, the “OATP1B1-mediated transport of [3H]-E1S, fold that of the control” value (OATP1B1 [3]; 1 µM preincubation, 30 min) was 0.88 ± 0.04 fold that of the control, the “OATP1B1-mediated transport of [3H]-E1S, fold that of the control” value (OATP1B1 [3]; 10 µM preincubation, 10 min) was 0.59 ± 0.04 fold that of the control and the “OATP1B1-mediated transport of [3H]-E1S, fold that of the control” value (OATP1B1 [3]; 10 µM preincubation, 30 min) was 0.59 ± 0.05 fold that of the control. The “OATP1B1-mediated transport of [3H]-E1S, fold that of the control” value (OATP1B1 [3]; 10 µM preincubation, 60 min) was 0.55 ± 0.04 fold that of the control, the “[3H]-pitavastatin accumulation after washout (long-lasting inhibition), fold that of the control” value (human SCH) was 0.59 ± 0.09 fold that of the control and the “[3H]-pitavastatin accumulation, fold that of the control” value (human SCH; human SCH, 1 h preincubation, washing, pitavastatin 1 µM, 0.5 min, N = 1 donor) was 0.58 ± 0.07 fold that of the control. For the same compound, the “Preincubation-induced trans-inhibition against OATP1B1” value (OATP1B1 [4]) was “no preincubation-induced trans-inhibition”, the “OATP1B3-mediated transport, reduced up to, fold compared to the control” value (OATP1B3 [5]) was 0.20 ± 0.02 fold compared to the control and the DDI against atorvastatin [6] was “does not cause DDIs”. The DDI against simvastatin [6] was “does not cause DDIs”, the “Increase of AUC of cerivastatin” value ([6]; long-term tacrolimus treatment, renal transplant recipients) was 1.5 fold and the “Increase of AUC of pravastatin” value ([6]; long-term tacrolimus treatment, two pediatric and adolescent cardiac transplant recipients) was ~ 10 fold.

Source: publication PMC10818623, “Assessing Trans-Inhibition of OATP1B1 and OATP1B3 by Calcineurin and/or PPIase Inhibitors and Global Identification of OATP1B1/3-Associated Proteins” (Pharmaceutics, 2023)
